# pIC50: −log10 of the molar value. Where two headings read alike, the source gives them in different places.
# Columns and labels:
# Erk phosphorylation = assay: Growth factor (bFGF) stimulated Erk phosphorylation in NIH 3T3 cells; conditions: Mus musculus, NIH3T3, NIH 3T3 cells, 3 ng/ml bFGF
# Text: These and other assays were used to evaluate the ability of a test compound to inhibit growth factor stimulated cellular signalling in mammalian cell lines. This was achieved by measuring the amount of receptor tyrosine kinase regulated Erk phosphorylation within a cell following compound treatment.
# NIH 3T3 (ECACC, 93061524) cells were routinely passaged in DMEM (Gibco BRL, 41966) plus 10% foetal calf serum (FCS), 1% L-glutamine (Gibco BRL, 25030) to a confluence not greater than 80%. To undertake the assay, NIH 3T3's were seeded at 1×10^4 cells/well in DMEM plus 10% foetal calf serum, 1% L-glutamine in 96 well plates (Costar, 3904) and incubated at 37° C. (+5% CO2) in a humidified incubator. Once the cells had fully adhered (typically following 4-5 hours incubation) the media was removed from each well and the cells gently washed with 100μl warm serum free media. 90μl of serum free DMEM plus 1% L-glutamine was then added to each well and the plates were returned to a humidified 37° C. (+5% CO2) incubator. The following day, the plates were dosed with 10[l compound (diluted from 10 mM stock in DMSO using serum free DMEM) and the plates were returned to a humidified 37° C. (+5% CO2) incubator for one hour. NIH 3T3 cells were then stimulated with a final concentration of 3 ng/ml bFGF (Sigma, F029 1) for 20 minutes at 37° C. Following stimulation the cells were fixed by adding formaldehyde (4% v/v final concentration) and incubating at room temperature for 20 minutes. The fixative solution was then removed and the wells were washed twice with 100μl phosphate buffered saline (PBS/A) before permeabilising the cells by the addition of 50 μl/well 0.1% triton/PBS/A for 10 minutes at room temperature. The permeabilisation solution was then removed and the cells washed twice more with 100 μl/well PBS/A before the addition of 50 μl/well anti-phospho p44/42 (Cell Signalling Technology, 9106), diluted 1/500 with PBS/A plus 10% FCS. The anti-phospho p44/42 antibody recognises Erk phosphorylated at threonine 202 and tyrosine 204. […] Finally, the plates were washed three times with 100 μl/well PBS/A, leaving the final wash in the wells before sealing the plates. The plates were read at 350 nm and 488 nm using an Arrayscan (Cellomics).
# FGFR1 IIIc [1] = target: T1, FGFR1 IIIc (Homo sapiens, UniProt P11362); assay: Cell based inhibition of transiently expressed FGFR1 IIIc phosphorylation (Cos-1 cells); conditions: Cos-1 cells, phospho-FGFR1; upper bound of bin; read-out: IC50
# T1 construct: host or cells: Cos-1
# T1 sequence (P11362 22-822): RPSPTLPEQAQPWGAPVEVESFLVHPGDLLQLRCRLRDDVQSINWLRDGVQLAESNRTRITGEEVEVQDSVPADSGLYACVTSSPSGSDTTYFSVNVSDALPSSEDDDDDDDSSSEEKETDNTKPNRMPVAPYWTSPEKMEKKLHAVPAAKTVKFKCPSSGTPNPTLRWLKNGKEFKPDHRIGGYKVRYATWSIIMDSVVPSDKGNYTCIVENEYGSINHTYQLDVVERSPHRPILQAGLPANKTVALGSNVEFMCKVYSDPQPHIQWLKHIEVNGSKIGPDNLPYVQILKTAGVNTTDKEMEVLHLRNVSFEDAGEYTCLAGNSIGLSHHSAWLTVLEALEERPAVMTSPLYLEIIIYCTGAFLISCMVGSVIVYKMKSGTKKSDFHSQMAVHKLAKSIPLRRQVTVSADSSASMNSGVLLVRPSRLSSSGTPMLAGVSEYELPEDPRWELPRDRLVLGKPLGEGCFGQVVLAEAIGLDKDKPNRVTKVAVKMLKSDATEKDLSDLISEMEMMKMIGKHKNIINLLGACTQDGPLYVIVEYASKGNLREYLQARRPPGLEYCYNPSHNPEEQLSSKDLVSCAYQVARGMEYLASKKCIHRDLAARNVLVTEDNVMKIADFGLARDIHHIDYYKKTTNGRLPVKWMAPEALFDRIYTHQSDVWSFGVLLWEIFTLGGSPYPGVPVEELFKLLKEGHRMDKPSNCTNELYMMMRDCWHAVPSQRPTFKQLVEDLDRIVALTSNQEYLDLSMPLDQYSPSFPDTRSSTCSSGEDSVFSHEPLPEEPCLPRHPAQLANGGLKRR
# human IGF1R = target: T2, human IGF1R (Homo sapiens, UniProt P08069); assay: Inhibition of insulin-like growth factor-1 receptor phosphorylation in R+ cells; format: cell-based; conditions: 30 nM IGF1, read-out: IGF cell class
# T2 construct: expressed in transfected cells; host or cells: R+ cells (R- mouse fibroblasts transfected with human IGF1R)
# T2 sequence (P08069 31-1367): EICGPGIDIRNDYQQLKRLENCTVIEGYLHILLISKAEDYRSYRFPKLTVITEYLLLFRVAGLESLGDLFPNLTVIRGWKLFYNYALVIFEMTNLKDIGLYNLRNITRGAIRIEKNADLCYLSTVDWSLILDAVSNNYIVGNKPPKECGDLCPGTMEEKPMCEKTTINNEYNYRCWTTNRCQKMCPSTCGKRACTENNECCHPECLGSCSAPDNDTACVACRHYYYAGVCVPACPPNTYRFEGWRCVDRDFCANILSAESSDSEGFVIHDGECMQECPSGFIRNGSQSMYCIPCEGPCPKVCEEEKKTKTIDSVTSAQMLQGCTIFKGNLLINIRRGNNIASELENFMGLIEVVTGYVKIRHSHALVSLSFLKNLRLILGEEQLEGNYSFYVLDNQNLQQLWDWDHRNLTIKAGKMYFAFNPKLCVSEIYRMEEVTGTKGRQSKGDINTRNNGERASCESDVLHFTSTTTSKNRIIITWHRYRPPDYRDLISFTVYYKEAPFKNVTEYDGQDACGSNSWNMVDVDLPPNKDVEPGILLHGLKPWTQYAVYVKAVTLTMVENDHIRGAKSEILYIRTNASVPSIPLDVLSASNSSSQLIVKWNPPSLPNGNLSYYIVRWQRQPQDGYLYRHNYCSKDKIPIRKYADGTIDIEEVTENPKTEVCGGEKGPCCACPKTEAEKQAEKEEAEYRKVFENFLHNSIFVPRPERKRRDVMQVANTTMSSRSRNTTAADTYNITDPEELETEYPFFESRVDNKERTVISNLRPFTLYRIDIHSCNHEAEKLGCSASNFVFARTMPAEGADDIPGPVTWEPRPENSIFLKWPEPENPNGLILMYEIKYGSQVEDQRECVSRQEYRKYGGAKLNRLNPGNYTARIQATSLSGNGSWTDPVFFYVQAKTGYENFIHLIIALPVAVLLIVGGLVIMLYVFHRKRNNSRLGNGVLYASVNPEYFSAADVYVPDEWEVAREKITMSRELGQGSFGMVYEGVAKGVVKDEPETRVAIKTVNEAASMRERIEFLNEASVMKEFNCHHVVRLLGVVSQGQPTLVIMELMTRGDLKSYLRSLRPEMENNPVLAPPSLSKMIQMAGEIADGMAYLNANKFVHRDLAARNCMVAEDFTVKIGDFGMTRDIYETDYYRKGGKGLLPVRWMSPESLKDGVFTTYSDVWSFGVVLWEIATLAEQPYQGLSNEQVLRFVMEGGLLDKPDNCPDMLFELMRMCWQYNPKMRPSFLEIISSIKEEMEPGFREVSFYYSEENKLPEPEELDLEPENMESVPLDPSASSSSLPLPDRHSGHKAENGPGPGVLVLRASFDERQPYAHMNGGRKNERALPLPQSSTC
# FGFR kinase domain = target: T3, FGFR kinase domain (Homo sapiens, UniProt P11362, C488A/C584S); assay: Kinase assay (ELISA) for inhibition of FGFR activity; format: biochemical
# T3 construct: FGFR kinase domain (amino acids 458-765, C488A, C584S) N-terminally fused to a His6-tag; made in house
# T3 sequence (P11362 458-765 C488A/C584S): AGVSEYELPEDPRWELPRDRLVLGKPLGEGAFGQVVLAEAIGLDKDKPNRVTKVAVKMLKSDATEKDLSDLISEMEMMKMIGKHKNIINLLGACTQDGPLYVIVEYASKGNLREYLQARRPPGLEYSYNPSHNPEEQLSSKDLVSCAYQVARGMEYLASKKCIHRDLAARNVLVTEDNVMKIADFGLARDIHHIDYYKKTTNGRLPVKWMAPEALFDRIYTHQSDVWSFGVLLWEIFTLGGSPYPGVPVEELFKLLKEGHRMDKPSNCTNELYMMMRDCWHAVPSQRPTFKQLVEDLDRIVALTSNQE
# Protocol: To determine inhibition of FGFR activity, kinase assays were conducted using ELISA (Enzyme-Linked Immunosorbent Assay) technology.
# Kinase activity assays were performed in 384-well polypropylene plates (Matrix, 4311) with a total volume of 40 μl in each well. Each well was coated with 2 μg of polyEAY substrate (Sigma, P3899) at 4° C. overnight. The plates were then washed once with 100 μl PBS and once with 100 μl 50 mM HEPES (pH 7.4) prior to the addition of the kinase assay reagents. […] Various concentrations of test compounds were each added in 5% (v/v) DMSO to yield a final assay DMSO concentration of 1.25% (v/v). The kinase reactions were incubated at room temperature for 45 minutes and stopped by washing the plate three times with 100 μl PBS plus 0.05% Tween. […] Following this, the plates were then washed repeatedly with 100 μl PBS plus 0.05% Tween to remove all traces of the antibody solution. 40 μl of 50 μg/ml 3,3′,5,5′-Tetramethylbenzidine (Sigma, T2885), 0.05M phosphate-citrate buffer, containing 0.03% sodium perborate was added to each well and the plates incubated at room temperature for twelve minutes. The colour reaction was stopped by the addition of 20 μl 2M H2SO4 and the plates read at 450 nm on a Spectrafluor Plus (Tecan).
# FGFR1 IIIc [2] = target: T1, FGFR1 IIIc; assay: Cell based inhibition of transiently expressed FGFR1 IIIc phosphorylation via use of ECHO technology (Cos-1 cells)
# FGFR1 kinase = FGFR1 kinase (Homo sapiens, UniProt P11362); assay: Kinase assay (using Caliper technology); format: biochemical; conditions: FGFR1 kinase, Caliper; upper bound of bin; read-out: IC50
# Sequence of FGFR1 kinase (P11362 22-822): as the sequence (P11362 22-822) above
# Summary of the method: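 Human FGFR1 kinase activity measured with a 13-mer fluorescently tagged FGFR1-specific peptide substrate; compounds serially diluted in 5% (v/v) DMSO. Reactions ran 1.5 h at room temperature, stopped with EDTA-containing HEPES pH 7.5 buffer. Phosphorylated and unphosphorylated peptide separated by microfluidic mobility shift.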
# [3] = FGFR inhibition tests, ELISA kinase assay, read-out: Activity class
# [4] = Cos-1 cells, phospho-FGFR1, ECHO dosing, upper bound of bin, read-out: IC50
SMILES,pIC50 (human IGF1R),pIC50 (FGFR kinase domain; [3]),pIC50 (FGFR1 IIIc [2]; [4]),pIC50 (FGFR1 kinase),other results
"Cc1cc(Nc2ccnc(NCc3cc(C(N)=O)no3)n2)[nH]n1 [Example 4, 5-[[[4-[(5-methyl-2H-pyrazol-3-yl)amino]pyrimidin-2-yl]amino]methyl]isoxazole-3-carboxamide]",< 5.00,–,–,–,pIC50 (FGFR kinase domain; Activity class): 6.00 to 7.00; pIC50 (FGFR1 IIIc [2]): > 5.00
"NC(=O)c1cc(CNc2nccc(Nc3cc(C4CC4)n[nH]3)n2)on1 [Example 11, 5-[[[4-[(5-cyclopropyl-2H-pyrazol-3-yl)amino]pyrimidin-2-yl]amino]methyl]-1,2-oxazole-3-carboxamide]",5.00 to 6.00,> 7.00,> 6.00,–,–
"CCOCCCc1cc(Nc2ccnc(NCc3cc(C(N)=O)no3)n2)[nH]n1 [Example 22, 5-[[[4-[[5-(3-ethoxypropyl)-2H-pyrazol-3-yl]amino]pyrimidin-2-yl]amino]methyl]-1,2-oxazole-3-carboxamide]",–,6.00 to 7.00,> 4.52,–,–
"COc1cccc(CCc2cc(Nc3ccnc(NCc4cc(-c5ncccn5)no4)n3)[nH]n2)c1 [Example 33, N′-[5-[2-(3-methoxyphenyl)ethyl]-2H-pyrazol-3-yl]-N-[(3-pyrimidin-2-yl1,2-oxazol-5-yl)methyl]pyrimidine-2,4-diamine]",< 5.00,–,–,> 6.70,"pIC50 (Erk phosphorylation): 6.29; pIC50 (Erk phosphorylation; upper bound of bin): > 6.00; pIC50 (FGFR kinase domain; stated after the ELISA results table, read-out: IC50): 7.04"
"Cc1cc(CNc2nc(C)cc(Nc3cc(OC(C)C)[nH]n3)n2)on1 [Example 68, 6-methyl-N-[(3-methyl-1,2-oxazol-5-yl)methyl]-N′-(5-propan-2-yloxy-1H-pyrazol-3-yl)pyrimidine-2,4-diamine]",< 5.00,> 7.00,> 6.70,> 6.70,–
"Cc1cc(Nc2cc(OC(C)C)[nH]n2)nc(NCc2cc(C3CC3)no2)n1 [Example 69, N-[(3-cyclopropyl-1,2-oxazol-5-yl)methyl]-6-methyl-N′-(5-propan-2-yloxy-2H-pyrazol-3-yl)pyrimidine-2,4-diamine]",–,> 7.00,> 6.70,> 6.70,–
"COc1cc(Nc2cc(OC(C)C)n[nH]2)nc(NCc2cc(C)no2)n1 [Example 70, 6-methoxy-N-[(3-methyl-1,2-oxazol-5-yl)methyl]-N′-(5-propan-2-yloxy-2H-pyrazol-3-yl)pyrimidine-2,4-diamine]",< 5.00,> 7.00,> 6.70,> 6.70,–
"COc1cc(Nc2cc(OC(C)C)[nH]n2)nc(NCc2cc(C3CC3)no2)n1 [Example 71, N-[(3-cyclopropyl-1,2-oxazol-5-yl)methyl]-6-methoxy-N′-(5-propan-2-yloxy-2H-pyrazol-3-yl)pyrimidine-2,4-diamine]",–,> 7.00,> 6.70,> 6.70,–
"Cc1cc(CNc2nccc(Nc3cc(OCc4ccccc4)[nH]n3)n2)on1 [Example 72, N-[(3-methyl-1,2-oxazol-5-yl)methyl]-N′-(5-phenylmethoxy-1H-pyrazol-3-yl)pyrimidine-2,4-diamine]",–,6.00 to 7.00,–,–,pIC50 (Erk phosphorylation; upper bound of bin): > 6.00

# Now from value to compound, other results behind:
pIC50 (human IGF1R),pIC50 (FGFR kinase domain; [3]),pIC50 (FGFR1 IIIc [2]; [4]),pIC50 (FGFR1 kinase),SMILES,other results
5.00 to 6.00,> 7.00,> 6.00,–,"Cc1cc(Nc2ccnc(NCc3cc(C4CC4)no3)n2)n[nH]1 [Example 3, N-[(3-cyclopropylisoxazol-5-yl)methyl]-N ′-(5-methyl-2H-pyrazol-3-yl)pyrimidine-2,4-diamine]",pIC50 (Erk phosphorylation): > 6.70; pIC50 (FGFR1 IIIc [1]): > 6.00
6.00 to 7.00,> 7.00,> 6.70,–,"CCCc1cc(Nc2ccnc(NCc3cc(C)no3)n2)n[nH]1 [Example 6, N-[(3-methylisoxazol-5-yl)methyl]-N ′-(5-propyl-2H-pyrazol-3-yl)pyrimidine-2,4-diamine]",–
–,> 7.00,> 6.70,–,"CCCc1cc(Nc2ccnc(NCc3cc(C4CC4)no3)n2)n[nH]1 [Example 7, N-[(3-cyclopropyl-1,2-oxazol-5-yl)methyl]-N′-(5-propyl-2H-pyrazol-3-yl)pyrimidine-2,4-diamine]",–
–,> 7.00,> 6.00,–,"CCCc1cc(Nc2ccnc(NCc3cc(C(N)=O)no3)n2)n[nH]1 [Example 8, 5-[[[4-[(5-propyl-1H-pyrazol-3-yl)amino]pyrimidin-2-yl]amino]methyl]-1,2-oxazole-3-carboxamide]",–
6.00 to 7.00,> 7.00,> 6.70,–,"c1cc(Nc2cc(C3CC3)[nH]n2)nc(NCc2cc(C3CC3)no2)n1 [Example 10, N-[(3-cyclopropyl-1,2-oxazol-5-yl)methyl]-N′-(5-cyclopropyl-2H-pyrazol-3-yl)pyrimidine-2,4-diamine]",–
–,6.00 to 7.00,> 5.00,–,"CCOCCCc1cc(Nc2ccnc(NCc3cc(C)no3)n2)n[nH]1 [Example 20, N′-[5-(3-ethoxypropyl)-2H-pyrazol-3-yl]-N-[(3-methyl-1,2-oxazol-5-yl)methyl]pyrimidine-2,4-diamine]",–
–,> 7.00,> 6.00,–,"CCOCCCc1cc(Nc2ccnc(NCc3cc(C4CC4)no3)n2)[nH]n1 [Example 21, N-[(3-cyclopropyl-1,2-oxazol-5-yl)methyl]-N′-[5-(3-ethoxypropyl)-2H-pyrazol-3-yl]pyrimidine-2,4-diamine]",–
< 5.00,6.00 to 7.00,–,> 6.00,"COc1ccc(CCc2cc(Nc3ccnc(NCc4cc(C)no4)n3)n[nH]2)cc1 [Example 24, N′-[5-[2-(4-methoxyphenyl)ethyl]-2H-pyrazol-3-yl]-N-[(3-methyl-1,2-oxazol-5-yl)methyl]pyrimidine-2,4-diamine]",pIC50 (FGFR1 IIIc [1]): > 6.00
–,6.00 to 7.00,> 6.70,> 6.00,"COc1ccc(CCc2cc(Nc3ccnc(NCc4cc(C5CC5)no4)n3)n[nH]2)cc1 [Example 25, N-[(3-cyclopropyl-1,2-oxazol-5-yl)methyl]-N′-[5-[2-(4-methoxyphenyl)ethyl]-2H-pyrazol-3-yl]pyrimidine-2,4-diamine]",–
–,6.00 to 7.00,> 5.00,> 6.00,"COc1ccc(CCc2cc(Nc3ccnc(NCc4cc(C(N)=O)no4)n3)[nH]n2)cc1 [Example 26, 5-[[[4-[[5-[2-(4-methoxyphenyl)ethyl]-2H-pyrazol-3-yl]amino]pyrimidin-2-yl]amino]methyl]-1,2-oxazole-3-carboxamide]",–
< 5.00,> 7.00,–,> 6.70,"COc1cccc(CCc2cc(Nc3ccnc(NCc4cc(C)no4)n3)n[nH]2)c1 [Example 27, N′-[5-[2-(3-methoxyphenyl)ethyl]-2H-pyrazol-3-yl]-N-[(3-methyl-1,2-oxazol-5-yl)methyl]pyrimidine-2,4-diamine]",pIC50 (FGFR1 IIIc [1]): > 6.70
–,6.00 to 7.00,> 6.70,> 6.70,"COc1cccc(CCc2cc(Nc3ccnc(NCc4cc(C5CC5)no4)n3)n[nH]2)c1 [Example 28, N-[(3-cyclopropyl-1,2-oxazol-5-yl)methyl]-N′-[5-[2-(3-methoxyphenyl)ethyl]-2H-pyrazol-3-yl]pyrimidine-2,4-diamine]",pIC50 (FGFR1 IIIc [1]): > 6.70
< 5.00,> 7.00,–,> 6.70,"COc1cccc(CCc2cc(Nc3ccnc(NCc4cc(C(N)=O)no4)n3)[nH]n2)c1 [Example 29, 5-[[[4-[[5-[2-(3-methoxyphenyl)ethyl]-2H-pyrazol-3-yl]amino]pyrimidin-2-yl]amino]methyl]-1,2-oxazole-3-carboxamide]",pIC50 (FGFR1 IIIc [1]): > 5.00
